This note sets out measurements from patent publication US20090023806A1, “ALUMINUM-STORAGE DISEASE IMPROVING AGENT” (AJINOMOTO CO. INC, priority 2006, published 2009).

Data set [1] can be described thus: Protein-binding rate of aluminum in rat plasma by ultrafiltration, with citric acid added. The class given is in vitro ADME. The following applies: aluminum 50 μg/L, citric acid final concentration raised by 3 mg/dL, 37° C. 60 minutes, no citric acid: 23.4±10.0%. Here is the method:
Whether aluminum combined to proteins chelates with citric acid and is dissociated from the proteins in rat plasma was examined.
A used indicator was the protein-binding rates (by ultrafiltration method) when citric acid was added and when not added.
Aluminum was added to rat blood plasma to make the concentration 50 μg/L, and citric acid was added there to make the final concentration rise by 3 mg/dL. Then, it was incubated at 37° C. for 60 minutes. After that, the solution was centrifuged in a centrifuge (Centrifree) to obtain about 100 μL of filtrate. The aluminum concentrations of the added sample, the supernatant and the filtrate were measured respectively by the HPLC method (Chromatoracer Al; SHINO-TEST Corp.) to calculate the protein-binding rates.

A short description of data set [2]: Elimination of aluminum accumulated in rat thigh bones by repeated intravenous citric acid. To be noted: aluminum-loaded male rats, 0.75% citric acid solution i.v. 4 hours, three times a week for 4 weeks. Type of data set: in vivo. As to the method:
After aluminum accumulations were made in rat tissues, citric acid as an aluminum complexing agent was administered intravenously repeatedly to examine whether citric acid would eliminate the aluminum accumulated in the tissues.
Aluminum was administered to male rats intraperitoneally repeatedly once a day for 6 weeks at 2 mg/kg. Then, the rats were cannulated in the jugular vein.
From the jugular cannula, 0.75% citric acid solution was administered repeatedly taking the same dialysis time and frequency as in human; that is, for 4 hours continuously intravenously three times a week for 4 weeks.
For the control group, physiological saline was administered in the same means. Each group had 4 to 6 rats.
After the 4-week administration, thigh bones were collected from the rats to compare the aluminum levels in the thigh bones of both groups using the ratios of the aluminum peak area analyzed by the HPLC method against the peak area of internal standard substance as an indicator.

The nature of data set [3]: Citric acid concentration in patient blood plasma during dialysis with citric acid-containing dialysate. The following applies: 1.7 mEq/L of citric acid added to a dialysate during a dialysis treatment. Type of data set: in vivo, human. As to the method:
The present invention provides a dialysate comprising aluminum complexing agents. Preferably, the aluminum complexing agent is citric acid. […] Meanwhile, it had been confirmed that, when 1.7 mEq/L of citric acid had been added to a dialysate during a dialysis treatment, the citric acid concentration in the patient blood plasma had risen by about 3 mg/dL. In the following examples, how this phenomenon effects on the aluminum kinetics in vivo was examined.

`O=C(O)CC(O)(CC(=O)O)C(=O)O` [citric acid] yielded a free-aluminum percentage in data set [1] of 35.5±0.4%. Besides, the “thighbone aluminum levels compared with control group” value in data set [2] (P<0.05 Student's t-test) is recorded as “statistically significantly lower”. Besides, the “thigh bone aluminum level: ratio of aluminum peak area (HPLC) against peak area of internal standard” value in data set [2] (saline control 4.46±0.52, mean±S.D.) is 3.62±0.27. Besides, in data set [3], the “rise of citric acid concentration in patient blood plasma” value is “about 3 mg/dL”.
